# Experimental data published in patent US9981899B2, “Composition containing reduced coenzyme Q10 and production method thereof” (KANEKA CORPORATION, priority 2006, dated 2018).
# Columns and labels:
# [1] = Oxidative stability: residual ratio of reduced coenzyme Q10 after preservation at 40° C. in the air in light shading for 30 days; format: physicochemical
# Experimental: The reduced coenzyme Q10 residual ratio (%) after preservation at 40° C. in the air for 30 days under shading conditions of the particulate composition containing reduced coenzyme Q10 of the present invention is not particularly limited. It is not less than about 50 wt %, preferably not less than about 60 wt %, more preferably not less than about 70 wt %, still more preferably not less than about 80 wt %, particularly preferably not less than about 90 wt %.
# The purity of reduced coenzyme Q10 and the weight ratio (%) of reduced coenzyme Q10 were determined by the following HPLC analysis (weight ratio (%)={reduced coenzyme Q10/(oxidized coenzyme Q10+reduced coenzyme Q10)}×100).
# [2] = Crystallinity of reduced coenzyme Q10 in the particulate composition by DSC; format: physicochemical; settings: after preservation at 25° C. in the air for 30 days; measured/theoretical melting calorie
# Experimental: The crystallinity of reduced coenzyme Q10 in the obtained particulate composition was determined by the following DSC (differential scanning calorimeter [EXSTAR6000 manufactured by Seiko Instruments Inc.]) analysis after preservation at 25° C. in the air for 30 days. The particulate compositions obtained in Examples and Comparative Examples were preserved under the above-mentioned given conditions, 10 mg thereof was taken in an aluminum pan and the temperature was elevated from 15° C. to 70° C. at a temperature rise rate of 5° C./min, during which the crystal melting calorie was measured. The crystallinity was calculated according to the following formula using the theoretical melting calorie determined from the content of reduced coenzyme Q10 in the particulate composition and the data of melting calorie actually measured by DSC. Crystallinity (%)=(measured melting calorie/theoretical melting calorie)×100 (Volume Average Particle Size)
compound,measurement,setting,value
"COc1c(O)c(C)c(C/C=C(\C)CC/C=C(\C)CC/C=C(\C)CC/C=C(\C)CC/C=C(\C)CC/C=C(\C)CC/C=C(\C)CC/C=C(\C)CC/C=C(\C)CCC=C(C)C)c(O)c1OC [Comparative Example 1, reduced coenzyme Q10]",residual ratio of the reduced coenzyme Q10,[1],28%
same,crystallinity measured by DSC,[2],100%
